The values that follow come from ChEMBL document CHEMBL1201862, “PubChem BioAssay data set” (2004).

One test deals with Genome polyprotein (dengue virus type 2, UniProt P29990). The test can be described thus: Dengue-2 NS5 methyltransferase inhibitors, primary screen, biochemical, confirmation dose response (AID 588689). The format is functional.
In a further test the test system is Vero. The test is described as follows: Vero cell cytotoxicity, cytotoxicity control for flavivirus capping enzyme inhibitors (AID 588742). The format is functional. The conditions noted are these: Chlorocebus sabaeus.
Test [1] has as its system A-375. The test is described as follows: MITF: Counter assay: A375 proliferation Measured in Cell-Based System Using Plate Reader - 2084-03_Inhibitor_Dose_DryPowder_Activity. [Related pubchem assays (depositor defined):AID488944]. The format is functional. To be noted: Homo sapiens.
A short description of test [2]: HepG2 cell cytotoxicity, dose response, cytotoxicity control for non-replicating M. tuberculosis project (AID 489018). To be noted: Mycobacterium tuberculosis. The format is functional.
For another test, the system named is Saccharomyces cerevisiae. The test is described as follows: NALP1 inhibitor project selectivity study, Caspase-1/ASC signal blockade IC50 in S. cerevisiae (AID 488863). The format is functional, organism-based.
Test [3] in a line: HepG2 cell cytotoxicity, dose response, cytotoxicity control for Shn3 inhibitor project, CellTiter-Glo, cherry-picked (AID 624134). The format is functional, cell-based. A general note: ATP-based viability assays read luminescence as a measure of living cells.
The nature of test [4]: Luminescence Cell-Based Dose Retest to Confirm Inhibitors of Cancer Stem Cells. [Related pubchem assays (depositor defined):AID2717, AID2721]. To be noted: Homo sapiens. The format is functional, Homo sapiens.
Test [5] can be described thus: growth suppression of PTEN-null colon cells, dose response, cell-based, HCT116 PTEN knockout (AID 1047).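 Note: HCT116 colon tumor cells with PTEN knocked out; cells exposed to compound for 60 hours before readout; potency for loss of cell viability measured by luminescence.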 The format is functional.
A short description of test [6]: control 3'UTR Renilla luciferase suppression, dose response, counter-screen for Shn3 inhibitor project, cell-based, Clone20-Shn3RL, cherry-picked (AID 624133). The format is functional. (In general: The purpose of a counterscreen is to sort out artefacts and off-target activity.)
The nature of test [7]: insulin promoter down-regulators in MIN6 cells, imaging, high-content screening, mouse beta cells (AID 1628). The format is functional.
Test [8] in a line: Shn3 3'UTR reporter inhibitors, dose response, cell-based, Clone20 osteoblasts, firefly luciferase, cherry-picked (AID 624132).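 Note: firefly luciferase luminescence from reporter carrying the Shn3 3'UTR in osteoblasts.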 The format is functional.
Test [9] deals with NACHT, LRR and PYD domains-containing protein 1 (Homo sapiens, UniProt Q9C000). The test is described as follows: NALP1 inhibitors in yeast, dose response, luminescent (AID 488860). The format is functional.
NACHT, LRR and PYD domains-containing protein 1, sequence (Q9C000 1-1212 limits assumed): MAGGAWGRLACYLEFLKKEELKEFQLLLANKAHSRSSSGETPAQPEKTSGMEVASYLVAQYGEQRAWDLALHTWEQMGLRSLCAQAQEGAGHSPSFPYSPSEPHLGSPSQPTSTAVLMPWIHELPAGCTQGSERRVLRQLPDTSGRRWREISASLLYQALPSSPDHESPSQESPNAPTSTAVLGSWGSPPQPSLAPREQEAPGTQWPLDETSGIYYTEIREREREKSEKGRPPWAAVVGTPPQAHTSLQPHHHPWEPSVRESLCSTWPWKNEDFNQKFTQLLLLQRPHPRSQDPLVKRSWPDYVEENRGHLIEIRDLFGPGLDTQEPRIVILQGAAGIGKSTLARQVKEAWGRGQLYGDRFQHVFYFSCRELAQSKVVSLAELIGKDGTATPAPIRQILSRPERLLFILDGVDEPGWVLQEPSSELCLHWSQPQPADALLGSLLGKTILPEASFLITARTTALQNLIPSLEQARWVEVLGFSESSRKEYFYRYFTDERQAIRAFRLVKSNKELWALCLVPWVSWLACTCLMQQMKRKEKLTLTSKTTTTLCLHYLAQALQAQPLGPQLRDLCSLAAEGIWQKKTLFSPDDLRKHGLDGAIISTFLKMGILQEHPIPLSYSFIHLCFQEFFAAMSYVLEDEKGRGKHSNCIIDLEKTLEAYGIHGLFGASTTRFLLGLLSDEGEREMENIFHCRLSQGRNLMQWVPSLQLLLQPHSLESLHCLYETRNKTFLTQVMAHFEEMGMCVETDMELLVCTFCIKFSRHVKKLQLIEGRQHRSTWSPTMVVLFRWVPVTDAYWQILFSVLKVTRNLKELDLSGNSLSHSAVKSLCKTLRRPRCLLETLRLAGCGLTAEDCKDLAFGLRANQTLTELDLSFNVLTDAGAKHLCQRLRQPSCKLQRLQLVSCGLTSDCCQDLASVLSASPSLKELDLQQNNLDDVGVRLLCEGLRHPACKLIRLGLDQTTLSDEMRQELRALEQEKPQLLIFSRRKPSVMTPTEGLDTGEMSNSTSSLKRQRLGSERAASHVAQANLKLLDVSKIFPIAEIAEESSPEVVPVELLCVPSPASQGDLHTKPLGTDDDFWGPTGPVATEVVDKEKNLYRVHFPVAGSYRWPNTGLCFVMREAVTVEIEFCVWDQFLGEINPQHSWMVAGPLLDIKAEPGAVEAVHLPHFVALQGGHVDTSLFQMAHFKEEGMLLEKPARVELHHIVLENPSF
NACHT, LRR and PYD domains-containing protein 1, sequence (Q9C000 1213-1473 limits assumed): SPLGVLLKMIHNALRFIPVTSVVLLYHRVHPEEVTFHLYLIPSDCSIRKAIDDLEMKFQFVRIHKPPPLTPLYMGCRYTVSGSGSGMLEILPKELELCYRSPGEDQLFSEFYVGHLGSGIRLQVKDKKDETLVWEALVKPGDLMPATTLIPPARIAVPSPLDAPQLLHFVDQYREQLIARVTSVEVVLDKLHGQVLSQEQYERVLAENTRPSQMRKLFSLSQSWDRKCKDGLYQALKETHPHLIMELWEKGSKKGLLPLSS
Test [10] in a line: THP-1 cell cytotoxicity, dose response, cytotoxicity control for non-replicating M. tuberculosis project (AID 489025). The format is functional.
In test [11] the test system is A-375. The test can be described thus: A375 melanoma cell viability reduction, dose response, counter-screen for MITF modulator project, cherry-pick samples, set 2 (AID 540335). The conditions noted are these: Homo sapiens. The format is functional, cell-based.
Test [12] concerns the target T1, Microphthalmia-associated transcription factor (Homo sapiens, UniProt O75030).
T1 sequence (O75030 whole entry): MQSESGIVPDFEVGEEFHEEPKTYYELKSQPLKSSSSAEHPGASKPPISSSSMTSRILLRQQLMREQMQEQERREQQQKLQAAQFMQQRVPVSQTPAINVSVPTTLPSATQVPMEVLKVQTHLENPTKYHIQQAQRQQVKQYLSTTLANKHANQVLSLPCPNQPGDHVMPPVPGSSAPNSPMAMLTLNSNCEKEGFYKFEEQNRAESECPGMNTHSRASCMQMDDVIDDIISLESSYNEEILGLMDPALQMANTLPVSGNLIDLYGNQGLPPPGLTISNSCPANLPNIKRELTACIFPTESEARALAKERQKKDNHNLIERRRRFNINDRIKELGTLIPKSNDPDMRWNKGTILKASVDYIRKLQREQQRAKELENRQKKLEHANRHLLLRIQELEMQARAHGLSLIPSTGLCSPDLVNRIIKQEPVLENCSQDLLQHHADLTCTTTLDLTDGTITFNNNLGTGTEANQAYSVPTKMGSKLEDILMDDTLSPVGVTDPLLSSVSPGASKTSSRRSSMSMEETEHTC
The test is described as follows: TRPM1 promoter luciferase signal decrease, dose response, MITF inhibitor project, cell-based, SK-MEL-5, cherry-picked, set 3 (AID 493073).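 Note: SK-MEL-5 melanoma cells with luciferase driven by the MITF target TRPM1 promoter.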 The format is functional.

A short description of test [13]: Vero E6 cell cytotoxicity, dose response, cytotoxicity control for non-replicating M. tuberculosis project, secondary assay (AID 492998). To be noted: Vero C1008. The format is functional, VeroE6.
The next test in a line: cells. The format is functional.
The nature of test [14]: cytotoxicity in MIN6 insulinoma cells, dose response, cytotoxicity control, cell-based, mouse insulinoma (AID 2122).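 Note: confirmatory high-throughput counterscreen run to flag cytotoxic compounds; mouse MIN-6 beta cells carrying an insulin promoter eGFP reporter.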 The format is functional.
Test [15] can be described thus: growth suppression of beta-catenin-knockout colon cells, dose response, cell-based, HCT116, human colon tumor (AID 1045).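 Note: HCT116 colon tumor cells with beta catenin knocked out; cells exposed to compound for 60 hours.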 The format is functional.
Test [16] concerns the target Dual specificity protein kinase CLK1 (Homo sapiens, UniProt P49759). The test can be described thus: CLK1 kinase inhibitors, off-target check, dose response, selectivity assay for Dyrk1A inhibitor project, biochemical, cherry-picked samples (AID 588811).
The target in test [17] is Cyclin-dependent kinase 2 (Homo sapiens, UniProt P24941). The test is described as follows: CDK2 kinase inhibitors, off-target check, dose response, selectivity assay for Dyrk1A inhibitor project, biochemical, cherry-picked samples (AID 602127).
In a further test the test system is Jurkat. The test is described as follows: SAR Analysis of small molecule inhibitors of […] specific antigen receptor-induced NF-kB activation in a Jurkat cell line using a luminescence assay - Set 3. [Related pubchem assays (depositor defined):AID435022, AID435025, AID465]. The format is functional, cell-based. The conditions noted are these: Homo sapiens.

Test [18] concerns HEK293. The test is described as follows: cytotoxicity in HEK293T NF-kB-Luc cells, SAR follow-up, cytotoxicity control for NF-kB activator project, cell-based, resazurin fluorescence (AID 493251). The conditions noted are these: Homo sapiens. The format is functional.
The subject of test [19] is HEK293. The test can be described thus: SAR Analysis of small molecule inhibitors of B-cell specific antigen receptor-induced NF-kB activation in a HEK-293T cell line using a luminescence assay - Set 2. [Related pubchem assays (depositor defined):AID435022, AID435025, AID489021]. The format is functional, cell-based. To be noted: Homo sapiens.

Activity calls are given as the source filed them.

Dual specificity protein kinase CLK1, sequence (P49759 whole entry): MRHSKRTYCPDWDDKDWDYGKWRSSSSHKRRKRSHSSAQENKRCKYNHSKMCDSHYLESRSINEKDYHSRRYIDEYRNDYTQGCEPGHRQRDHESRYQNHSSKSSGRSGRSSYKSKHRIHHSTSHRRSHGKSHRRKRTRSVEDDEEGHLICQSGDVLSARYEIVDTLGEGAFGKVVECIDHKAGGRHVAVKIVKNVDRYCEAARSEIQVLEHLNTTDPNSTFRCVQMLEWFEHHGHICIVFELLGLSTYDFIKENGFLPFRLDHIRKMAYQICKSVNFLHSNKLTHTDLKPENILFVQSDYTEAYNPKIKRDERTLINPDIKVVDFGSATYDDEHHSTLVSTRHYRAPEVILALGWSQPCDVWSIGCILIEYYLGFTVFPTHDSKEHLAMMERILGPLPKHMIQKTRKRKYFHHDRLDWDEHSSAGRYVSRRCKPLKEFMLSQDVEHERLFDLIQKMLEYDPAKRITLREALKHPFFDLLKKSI
Genome polyprotein, sequence (P29990 2492-3391 limits assumed): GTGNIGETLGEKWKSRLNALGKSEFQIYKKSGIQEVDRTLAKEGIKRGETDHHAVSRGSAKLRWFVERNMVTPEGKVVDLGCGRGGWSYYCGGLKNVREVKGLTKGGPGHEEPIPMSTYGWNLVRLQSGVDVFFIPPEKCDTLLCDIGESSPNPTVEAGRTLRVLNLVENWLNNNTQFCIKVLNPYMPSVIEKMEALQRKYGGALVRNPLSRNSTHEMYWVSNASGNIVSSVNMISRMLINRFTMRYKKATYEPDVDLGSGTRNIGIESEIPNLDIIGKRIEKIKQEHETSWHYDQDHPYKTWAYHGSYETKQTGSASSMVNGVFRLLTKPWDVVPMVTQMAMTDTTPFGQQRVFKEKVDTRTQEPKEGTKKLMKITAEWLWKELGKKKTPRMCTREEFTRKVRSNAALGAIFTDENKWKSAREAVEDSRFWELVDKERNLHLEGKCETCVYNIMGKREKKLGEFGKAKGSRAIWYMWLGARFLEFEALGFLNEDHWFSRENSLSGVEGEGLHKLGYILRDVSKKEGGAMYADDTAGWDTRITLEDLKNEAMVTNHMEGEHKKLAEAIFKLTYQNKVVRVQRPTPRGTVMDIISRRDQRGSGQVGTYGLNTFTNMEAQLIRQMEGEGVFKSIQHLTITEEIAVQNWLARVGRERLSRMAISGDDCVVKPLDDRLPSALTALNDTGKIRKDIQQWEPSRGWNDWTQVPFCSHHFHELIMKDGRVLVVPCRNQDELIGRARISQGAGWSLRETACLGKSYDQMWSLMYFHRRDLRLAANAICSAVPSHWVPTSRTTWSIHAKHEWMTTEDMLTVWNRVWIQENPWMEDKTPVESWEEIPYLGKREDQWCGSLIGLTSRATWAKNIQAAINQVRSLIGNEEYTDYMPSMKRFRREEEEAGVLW

On to `O=C1NC(=S)NC(=O)C1=Cc1c(Cl)cccc1Cl`, for which the IC50 (usually the concentration that inhibits the measured activity by half) on Genome polyprotein is 26.9 µM (active). In addition, the CC50 – broadly, the concentration that lowers cell viability or growth by half – in the test with Vero was > 40 µM (active).

Regarding `CCCOc1ccc(C(=O)C(CN2CCCC2)c2ccccc2)cc1` (centres undefined), the AC50 – broadly, the concentration at which the activity in the assay is half-maximal – with A-375 [1] is > 35 µM (active); in test [3], 22.6 µM (active); in test [4], 1.76 µM (active); in test [6], 13.2 µM (active); in test [8], 4.84 µM (active); in the test on A-375 [11], > 35 µM (active). For the same compound, in test [12], the AC50 is 8.62 µM (active). The cytotoxic concentration (CC50) was 13.3 µM (active) in test [2], 6.32 µM (active) in test [10] and 9.02 µM (active) in [13]. Also, the IC50 in the test with Saccharomyces cerevisiae is 5.8 µM (active); in [7] it was 3.73 µM (active); in [9], 10.2 µM (active); in “cells” it was 12.7 µM (active); in [14], 3.13 µM (active). Besides, the half-maximal effective concentration (EC50) (as a rule, the concentration giving half of the maximal effect) was 2.19 µM (active) in [5] and 1.96 µM (active) in test [15].

As to `c1cncc(CNc2nccc(-c3ccc4cn[nH]c4c3)n2)c1`, the results for the concentration at half-maximal activity (AC50) in test [16] and in test [17] were 0.0754 µM (active) and 13.8 µM (active), respectively.

`CNC(=O)CCc1nc(-c2ccc(F)cc2)no1`: the IC50 in the test on Jurkat, with HEK293 [18] and in the test on HEK293 [19] was > 80 µM (inactive) throughout.
